The results in this text go back to ChEMBL document CHEMBL1201862, “PubChem BioAssay data set” (2004).

The nature of assay [1]: NIH-3T3 fibroblast cytotoxicity, dose response, cytotoxicity control, cell-based, fluorescence, Alamar Blue, secondary assay (AID 2327).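 Also: NIH-3T3 mouse fibroblasts cultured with fluconazole at 8 µg/mL.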 In kind it is functional. For orientation: Alamar Blue is a resazurin reagent that responds to reducing activity.
Assay [2] has as its target T1, Rac GTPase-activating protein 1 (Homo sapiens, UniProt Q9H0H5).
T1 sequence (Q9H0H5 whole entry): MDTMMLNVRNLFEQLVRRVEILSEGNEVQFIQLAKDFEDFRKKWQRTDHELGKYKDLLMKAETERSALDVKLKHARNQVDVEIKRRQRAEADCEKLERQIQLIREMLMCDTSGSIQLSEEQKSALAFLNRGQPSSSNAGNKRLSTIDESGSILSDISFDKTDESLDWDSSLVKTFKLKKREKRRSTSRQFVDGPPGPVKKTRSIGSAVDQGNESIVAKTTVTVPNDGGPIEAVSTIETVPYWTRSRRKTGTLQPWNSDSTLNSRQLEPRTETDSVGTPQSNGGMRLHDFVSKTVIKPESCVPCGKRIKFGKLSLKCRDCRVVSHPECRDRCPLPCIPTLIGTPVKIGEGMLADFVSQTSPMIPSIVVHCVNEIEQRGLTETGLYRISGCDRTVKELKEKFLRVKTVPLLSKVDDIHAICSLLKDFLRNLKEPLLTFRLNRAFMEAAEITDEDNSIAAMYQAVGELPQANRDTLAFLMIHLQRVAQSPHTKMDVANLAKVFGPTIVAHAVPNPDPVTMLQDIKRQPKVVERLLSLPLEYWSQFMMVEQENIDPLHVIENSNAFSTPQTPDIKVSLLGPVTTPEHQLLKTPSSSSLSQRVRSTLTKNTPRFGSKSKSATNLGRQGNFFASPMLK
Put plainly: blockers of MgcRacGAP-driven Rac1 GTP hydrolysis – biochemical, ADP Hunter fluorescence, primary and confirmatory, confirmation (AID 624330). In kind it is functional.

In assay [3] the target is T2, Corticotropin-releasing factor receptor 2/Corticotropin-releasing factor-binding protein (Homo sapiens, UniProt P24387+Q13324).
T2 sequence (Q13324 whole entry): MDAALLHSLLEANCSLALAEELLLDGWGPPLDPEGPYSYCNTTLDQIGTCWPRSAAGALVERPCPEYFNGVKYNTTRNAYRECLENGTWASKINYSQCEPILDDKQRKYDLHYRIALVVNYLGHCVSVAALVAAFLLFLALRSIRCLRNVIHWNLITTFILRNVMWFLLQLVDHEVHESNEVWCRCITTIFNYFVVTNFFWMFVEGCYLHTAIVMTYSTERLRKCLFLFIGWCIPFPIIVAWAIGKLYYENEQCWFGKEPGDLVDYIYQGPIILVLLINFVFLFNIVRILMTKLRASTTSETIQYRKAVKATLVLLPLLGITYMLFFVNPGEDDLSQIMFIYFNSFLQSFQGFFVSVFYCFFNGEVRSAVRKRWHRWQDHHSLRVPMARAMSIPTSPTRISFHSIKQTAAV
T2 sequence (P24387 whole entry): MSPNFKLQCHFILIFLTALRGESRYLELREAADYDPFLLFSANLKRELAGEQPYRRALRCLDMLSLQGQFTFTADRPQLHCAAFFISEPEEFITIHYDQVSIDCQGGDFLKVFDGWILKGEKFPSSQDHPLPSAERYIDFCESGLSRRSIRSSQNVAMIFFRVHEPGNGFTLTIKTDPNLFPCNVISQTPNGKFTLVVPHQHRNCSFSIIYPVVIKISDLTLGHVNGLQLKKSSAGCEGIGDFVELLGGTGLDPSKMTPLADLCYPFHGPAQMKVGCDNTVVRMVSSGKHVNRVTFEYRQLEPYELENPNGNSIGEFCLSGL
Put plainly: Dose Response confirmation of uHTS hits for small molecule antagonists of the CRF-binding protein and CRF-R2 receptor complex. The note with it: read-out: IC50_Mean. In kind it is functional.

Assay [4] deals with T2, Corticotropin-releasing factor receptor 2/Corticotropin-releasing factor-binding protein. Put plainly: activators of CRF receptor 2 with binding protein – uHTS hits, confirmation (AID 602473). In kind it is functional. The settings on record: read-out: EC50_Mean.
A further assay is described as follows: cells. In kind it is functional.
The test system of a further assay is Streptococcus. Put plainly: GAS UMAA2166 growth inhibition – luminescence, BacTiterGlo, counter-screen for streptokinase expression inhibitor project, dose response (AID 1915).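 Also: potency for reduction of bacterial viability or growth.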 In kind it is functional, organism-based.
In another assay the target is T3, Streptokinase A (Streptococcus pyogenes serotype M1, UniProt P10520).
T3 sequence (P10520 whole entry): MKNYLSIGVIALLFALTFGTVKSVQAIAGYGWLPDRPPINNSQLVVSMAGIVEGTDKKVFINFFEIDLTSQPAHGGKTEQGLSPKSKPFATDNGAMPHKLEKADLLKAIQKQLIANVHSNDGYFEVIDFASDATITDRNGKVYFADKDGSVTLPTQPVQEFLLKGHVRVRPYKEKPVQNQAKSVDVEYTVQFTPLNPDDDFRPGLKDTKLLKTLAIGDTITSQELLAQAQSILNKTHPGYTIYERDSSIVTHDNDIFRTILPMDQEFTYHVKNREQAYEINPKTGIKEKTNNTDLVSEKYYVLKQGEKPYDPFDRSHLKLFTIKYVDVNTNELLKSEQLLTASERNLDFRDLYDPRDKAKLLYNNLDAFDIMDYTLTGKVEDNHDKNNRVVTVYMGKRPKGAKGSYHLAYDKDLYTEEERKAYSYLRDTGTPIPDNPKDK
Put plainly: viability-normalized secreted streptokinase activity reduction – plasminogen activation absorbance, OD405, dose response (AID 1914).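 Also: secreted streptokinase activity via plasminogen activation per viability signal from cell pellet.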 In kind it is functional, Streptococcus pyogenes M1 GAS.

For assay [5], the system named is Streptococcus sp. 'group A'. Put plainly: Streptococcus pyogenes SK(-)GAS viability under kanamycin – luminescence, BacTiterGlo, confirmation, counter-screen for streptokinase expression inhibitor project, dose response (AID 1900). In kind it is functional, organism-based. A general note: The purpose of a counterscreen is to sort out artefacts and off-target activity.

Assay [6] in a line: P. falciparum Dd2 growth inhibitors, dose response, SYBR Green, cherry-picked samples (AID 1159567). In kind it is functional, cell-based.

Activity calls are given as the source filed them.

As for `Cn1c(SCC(=O)N2CCCc3ccccc32)nnc1-c1ccccc1`, the EC50 in assay [1] was > 160 µM (inactive).

Turning to `Cc1ccccc1OCCN1CCCC1`, in assay [2], the IC50 is 176 µM (active).

On to `N#C/C(=C\c1ccc(N2CCOCC2)o1)c1ccccc1`, for which the IC50 in assay [2] is 47.1 µM (active).

For `CSc1ccc(CCNC(=O)c2ccc(C[S+]([O-])Cc3ccc(Cl)cc3)o2)cc1` (stereo not drawn), the IC50 in assay [3] is > 47.1 µM (inactive). For the same compound, in [4], the EC50 is > 53 µM (inactive).

Turning to `O=C(Nc1ccn(Cc2ccccc2)n1)c1ccc(F)cc1`, the IC50 in “cells” is > 50 µM (active).

`COc1ccc(NC(=O)C(=O)NNC(=O)C(C)Oc2ccc(Cl)cc2Cl)cc1` (stereo not drawn): the EC50 in the assay on Streptococcus was 18.5 µM (active); on Streptokinase A, > 150 µM (not active); in assay [5] it was 4.84 µM (active). In addition, the IC50 in “cells” is 6.02 µM (active).

As for `COc1ccc(-c2nc3c(c(=O)c4ccccc4n3C)c(=O)n2Cc2ccccc2)cc1`, in assay [4], the EC50 was > 53 µM (inactive).

As for `CCOC(=O)c1sc(NC(=O)CN(CC(C)C)CC(C)C)c(C(=O)OCC)c1C`, the IC50 in [3] was > 47.1 µM (inactive). Moreover, the EC50 in assay [4] was > 53 µM (inactive).

Turning to `Cc1ccc(C(C)C)c(OCC(=O)OCc2c(C)noc2C)c1`, the IC50 in the assay “cells” is 5.76 µM (active).

Regarding `Cc1ccc(NCCC(=O)c2cccs2)cc1`, the IC50 in “cells” was 10.5 µM (active).

On to `CN(C)c1ccc(NC(=O)CN2C(=O)c3ccccc3C2=O)cc1`, for which the IC50 in assay [2] was 73.7 µM (active).

Turning to `CCOc1cc(/C=C2\SC(N3CCCC(C)C3)=NC2=O)ccc1O` (stereo not drawn), the IC50 in assay [2] was 26.9 µM (active).

Consider `COc1ccc(C2=CC(c3ccco3)n3ncnc3N2)cc1` (stereo not drawn), for which the EC50 in assay [4] is 4.53 µM (active).

In the case of `CSc1ccc(/C=C(/NC(=O)c2ccc(C)cc2)C(=O)Nc2cccc(F)c2)cc1`, the IC50 in assay [3] was > 47.1 µM (inactive). In addition, in assay [4], the EC50 was > 53 µM (inactive).

Consider `Cc1ccc(NC(=O)COCC(=O)Nc2ccc(C)cc2)cc1`, for which the IC50 in “cells” is 22.8 µM (active).

For `O=C(OCC(=O)N1CCCc2ccccc21)c1ccc(S(=O)(=O)C(F)F)cc1`, the IC50 in “cells” is 23.3 µM (active).

Consider `COC(=O)c1ccc(N2CCN(CCNC(=O)Nc3ccc(OC)cc3)CC2)cc1`, for which the IC50 in “cells” was 22.5 µM (active).

`COc1ccc(CNCC(=O)Nc2cc(OC)cc(OC)c2)cc1`: the IC50 in assay [2] was 123 µM (active).

With `COc1cc(OC)c(OC)cc1CN1CCN(Cc2ccc(SC)cc2)CC1`, the IC50 in assay [2] was 66.9 µM (active).

On to `CCOC(=O)Cn1c(=O)oc2cc(S(=O)(=O)NC(C)(C)CC)ccc21`, for which the IC50 in assay [3] was > 47.1 µM (inactive). Besides, the EC50 in assay [4] was > 53 µM (inactive).

Take `CC(=O)N1CCOc2cc(S(=O)(=O)N3CCN(c4ccccc4)CC3)c(Cl)cc21`: the IC50 in assay [3] was > 47.1 µM (inactive). Also, in assay [4], the EC50 is > 53 µM (inactive).

In the case of `CCOC(=O)N/N=C/c1ccc(N(CC)CC)cc1O`, the IC50 in [2] was 78.5 µM (active).

Consider `COc1ccc(-c2ccc(/C=N/NC(=O)Cc3nnc(N)s3)o2)cc1Cl`, for which the IC50 in [3] is > 47.1 µM (inactive). Further, the EC50 in assay [4] is > 53 µM (inactive).

On to `CCc1cc(/C(Cc2ccccn2)=N\O)c(O)cc1O`, for which the IC50 in assay [2] is 31.6 µM (active).

Regarding `COc1ccc(NC(=O)N(C)C[C@H]2Oc3cc(-c4ccc(C)cc4)ccc3S(=O)(=O)N([C@H](C)CO)C[C@@H]2C)cc1`, the half-maximal activity concentration (AC50) (commonly the midpoint of the concentration-response curve, whichever way the signal moves) in assay [6] was 4.83 µM (active).

With `C[C@H](CO)N1C[C@H](C)[C@@H](CN(C)C(=O)Nc2cccc3ccccc23)Oc2ccc(NC(=O)Nc3cccc4ccccc34)cc2CC1=O`, in assay [6], the AC50 is 5.57 µM (active).

Turning to `C[C@H](CO)N1C[C@H](C)[C@H](CN(C)CC2CC2)Oc2cc(-c3cccc(C#N)c3)ccc2S1(=O)=O`, the half-maximal activity concentration (AC50) in assay [6] was 3.61 µM (active).

With `COc1ccc(C#Cc2ccc([C@H]3[C@H]4CN(C(=O)c5ccc(F)cc5)CC(=O)N4[C@H]3CO)cc2)cc1`, the concentration at half-maximal activity (AC50) in assay [6] was 6.95 µM (active).

Consider `CCCC#Cc1ccc2c(c1)O[C@H](CN(C)C(=O)c1ccccc1F)[C@@H](C)CN([C@H](C)CO)S2(=O)=O`, for which the AC50 in assay [6] is 4.94 µM (active).
